In general, MIC refers to the lowest concentration found to suppress growth.

The test system of test [1] is E. coli ATCC 25922. The following applies: per CLSI M100-S24 or provided by Microbion; cited from earlier work.
Test [2] deals with MDR P. aeruginosa. As to the kind of experiment: MIC against CF isolates (Example 7, Table 18). The note with it: Pseudomonas aeruginosa, Multi-drug resistant. The format is cell-based.
Test [3] relates to E. cloacae. As to the kind of experiment: Broth microdilution MIC (Example 5). The note with it: Enterobacter cloacae, ATCCBAA2468. Type of test: cell-based, Enterobacter cloacae. How it is done:
(§1) Test and Comparator Agents: The test agents were stored at room temperature until assayed. […] The stock solutions were allowed to stand for at least 1 hr prior to use to auto-sterilize.
(§2) TestMedia: Test media were prepared and stored in accordance with guidelines from CLSI (4, 6, 7).
Broth Microdilution MC Testing (Aerobic Bacteria and Yeast): The broth microdilution assay method employed for the susceptibility testing of aerobic bacteria (excluding N. gonorrhoeae which was evaluated by agar dilution) and yeast essentially followed the procedures described by CLSI (3, 4, 7, 8) and employed automated liquid handlers to conduct serial dilutions and liquid transfers. […] These would become the ‘mother plates’ from which ‘daughter’ or test plates would be prepared. The drugs (300 μL at 40× the desired top concentration in the test plates) were dispensed into the appropriate well in Column 1 of the mother plates. The Biomek 2000 was used to make serial two-fold dilutions through Column 11 in the “mother plate”. […]
Plates were stacked 4 high, covered with a lid on the top plate, placed into plastic bags, and incubated at 35° C. for approximately 24-48 hr for all yeast isolates and 16-24 hr for aerobic bacteria. […] MIC endpoints for the test agents and control compounds were read per CLSI criteria (3, 7).
(Dilution methods test growth across graded concentrations, often in twofold steps.)

The test system of test [4] is K. pneumoniae. As to the kind of experiment: Broth microdilution MIC (Example 5). Type of test: cell-based, Klebsiella pneumoniae. The following applies: Klebsiella pneumoniae. As for the experimental part: as §1, §2
Broth Microdilution MC Testing (Aerobic Bacteria and Yeast): The broth microdilution assay method employed for the susceptibility testing of aerobic bacteria (excluding N. gonorrhoeae which was evaluated by agar dilution) and yeast essentially followed the procedures described by CLSI (3, 4, 7, 8) and employed automated liquid handlers to conduct serial dilutions and liquid transfers. […] These would become the ‘mother plates’ from which ‘daughter’ or test plates would be prepared. The drugs (300 μL at 40× the desired top concentration in the test plates) were dispensed into the appropriate well in Column 1 of the mother plates. The Biomek 2000 was used to make serial two-fold dilutions through Column 11 in the “mother plate”. The wells of Column 12 contained no drug and ultimately served as the organism growth control wells.
The daughter plates were prepared using the Biomek FX which transferred 5 μL of drug solution from each well of a mother plate to the corresponding well of the correct daughter plate in a single step.
A standardized inoculum of each organism was prepared per CLSI methods (3, 7). Isolated colonies of each test isolate were picked from the primary plate and a suspension was prepared to equal a 0.5 McFarland turbidity standard. Standardized suspensions were then diluted […] (1:100 for yeast, 1:20 for bacteria). After dilution, the inoculum suspensions were then transferred to compartments of sterile reservoirs divided by length (Beckman Coulter), and the Biomek 2000 was used to inoculate all plates. Daughter plates were placed on the Biomek 2000 in reverse orientation so that plates were inoculated from low to high drug concentration.
The Biomek 2000 delivered 10 μL of standardized inoculum into each well of the appropriate daughter plate for an additional 1:20 dilution.
Plates were stacked 4 high, covered with a lid on the top plate, placed into plastic bags, and incubated at 35° C. for approximately 24-48 hr for all yeast isolates and 16-24 hr for aerobic bacteria. Plates were viewed from the bottom using a plate viewer. […] MIC endpoints for the test agents and control compounds were read per CLSI criteria (3, 7).

Test [5] concerns anaerobes. As to the kind of experiment: MIC summary, anaerobes (Example 5). The format is cell-based, Bacteroides fragilis and Clostridium difficile. The following applies: read-out: MIC values across isolates. As for the experimental part: Test and Comparator Agents: The test agents were stored at room temperature until assayed. All test agents were suspended and diluted in 100% dimethylsulfoxide (DMSO), and were ultimately tested at a final concentration of 0.06-64 μg/mL. The stock solutions were allowed to stand for at least 1 hr prior to use to auto-sterilize.
The susceptibility of anaerobic bacteria was determined by agar dilution using Brucella Agar (BD/BBL; Lot No. 5237692) supplemented with 5 μg/mL hemin (Sigma, St. Louis, MO; Lot No. 108K1088), 1 μg/mL Vitamin K1 and 5% (v/v) laked sheep blood (Cleveland Scientific, Bath, OH; Lot No. 322799).
Agar Dilution MIC Testing (Anaerobic Bacteria and Gonococci): MIC values for anaerobic bacteria were determined using a reference agar dilution method as described by CLSI (6). Organisms were grown at 35° C. in the Bactron II Anaerobic Chamber (Shel Lab, Cornelius, OR) for approximately 48 hr prior to the assay. Drug dilutions and drug-supplemented agar plates were prepared manually per CLSI (6). The plates were allowed to stand at room temperature for 1 hr to allow the agar surface to dry and pre-reduced for approximately 1 hr in the anaerobe chamber prior to inoculation. Each isolate was suspended to the equivalent of a 0.5 McFarland standard in Brucella broth using a turbidity meter (Dade Behring MicroScan, West Sacramento, CA). […] The MIC was read per CLSI guidelines (6).

Test [6] deals with S. pyogenes. The test can be described thus: Broth microdilution MIC (Example 5). The note with it: Streptococcus pyogenes. The format is cell-based. In a few lines: (§3)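 Susceptibility testing used automated two-fold serial dilution in microdilution plates per CLSI. Each well received a standardized inoculum from a 0.5 McFarland suspension, with an unmedicated column as growth control.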

Test [7] relates to S. agalactiae. As to the kind of experiment: Broth microdilution MIC (Example 5). Type of test: cell-based. The following applies: Streptococcus agalactiae. In outline: as §3
Test [8] deals with Achromobacter spp. biofilm. The test can be described thus: Activity against biofilms (Example 7). The note with it: tested up to 250 μg/mL. The format is cell-based.
The subject of test [9] is Pseudomonas aeruginosa biofilms (MR14, AG14). The test can be described thus: Activity against biofilms (Example 7). The note with it: MR14, MDR CF-isolate of P. aeruginosa; at 25 ng/mL. The format is cell-based.

Where two headings read alike, the source gives them in different places. A value given as a limit tells only on which side of the number the result lay.

Turning to `NCC[C@H](O)C(=O)N[C@@H]1C[C@H](N)[C@@H](O[C@H]2O[C@H](CN)[C@@H](O)[C@H](O)[C@H]2O)[C@H](O)[C@H]1O[C@H]1O[C@H](CO)[C@@H](O)[C@H](N)[C@H]1O` [Amikacin], in test [1], the “MIC, acceptable range” value is 0.5 to 4 µg/mL and the “MIC, expected results” value was 1 to 2 µg/mL. In [2] (strain AGR14, P. aeruginosa), this molecule returned an MIC greater than 64 µg/mL. The molecule further displayed an MIC in test [2] (strain MR14, P. aeruginosa) greater than 64 µg/mL.
For `OCC(S)CS.[Bi]` (stereo not shown) [MB-2B, bismuth-2,3-dimercaptopropanol], the MIC in [3] amounted to 32 µg/mL; in test [4] (K. pneumoniae MMX 4622, KPC-2) it was 16 µg/mL; in [4] (K. pneumoniae MMX 4623, KPC-2), 32 µg/mL; in test [4] (K. pneumoniae MMX 4653, KPC-3), 16 µg/mL; in [4] (K. pneumoniae MMX 4683, KPC-2), 8 µg/mL; in [4] (K. pneumoniae MMX 4684, ESBL, read-out: MIC) it was 32 µg/mL. Further, the MIC in test [4] (K. pneumoniae MMX 4685, ESBL, read-out: MIC) is 8 µg/mL; in test [4] (K. pneumoniae MMX 4694, KPC-3) it was 8 µg/mL; in test [4] (K. pneumoniae MMX 5979, NDM-1) it was 16 µg/mL; in test [5], 2 to 16 µg/mL; in test [6] (S. pyogenes MMX 3068, EryR), 2 µg/mL; in test [6] (S. pyogenes MMX 3820, ERYR CLIR) it was 1 µg/mL. The MIC in [6] (S. pyogenes MMX 3919, ERYR) is 0.25 µg/mL; in [6] (S. pyogenes MMX 3929, ERYR CCR), 1 µg/mL; in test [6] (S. pyogenes MMX 5091, ERYR CCR), 1 µg/mL; in [7] (S. agalactiae MMX 3741, ERYR CCR), 4 µg/mL; in test [7] (S. agalactiae MMX 3743, ERYR CCR), 4 µg/mL; in [7] (S. agalactiae MMX 4077, ERYR CCR), 4 µg/mL. This molecule also displayed an MIC in test [7] (S. agalactiae MMX 4079, ERYR CCR PenR MEMR) of 8 µg/mL.
In the case of `CC(S)C(C)S.[Bi]` (stereo not shown) [MB-6, bismuth-2,3-butanedithiol], in [8], the “Reduction in viable biofilm cells” value was determined as 5 log. Moreover, the “Reduction in biofilm cell viability” value in [9] is on record as 2 logs.

Source of the values: patent US20240285571A1, “METHODS OF TREATING BONE INFECTIONS” (MICROBION CORPORATION, priority 2020, published 2024).
